Assay results taken from patent publication US10676467B2 (Washington University, priority 2017, dated 2020).
“And” between values parts separate entries of the source, which are not always exact repeats. Equal values may be shown once.

Key:
S1P1 [1] = biological target: S1P1 (Rattus norvegicus (Rat), UniProt P48303); assay: MicroPET and tracer kinetic modeling in EAE rat model, lumbar spinal cord; format: in vivo
[2] = Ex vivo autoradiography of [18F]22b in rat brain; conditions: male SD rat, 60 min post-injection
Method: Frozen slides were directly exposed to a BAS storage phosphor screen film (BAS-IP-MS-2025) in an imaging cassette (Fuji Photo Film Co., Tokyo, Japan) for 12 h at -80° C. under the dark. The distribution of radioactivity was visualized by a Fuji Bio-Imaging Analyzer FLA-7000 (Fuji Photo Film Co., Tokyo, Japan). […] E. Toman, S. Spiegel, Lysophospholipid receptors in the nervous system, Neurochem. Res. 27 (2002) 619-627; […]. Tanaka, J. Aoki, H. Arai, S. Noji, Expression patterns of the lysophospholipid receptor genes during mouse early development, Dev. Dyn. […] Cytochem. 58 (2010) 847-856).

[3] = Ex vivo biodistribution in female Lewis rats; set-up: species or system rat
Description: Organs of blood, heart, lung, muscle, fat, pancreas, spleen, kidney, liver, thymus, brain, and bone were dissected and collected for counting. All the samples were counted with a dilution of the injectate on an automated well counter (Beckman Gamma 8000 well counter). Tissues were weighed and the uptake was reported as background and decay-corrected percent injected dose per gram (% ID/g).
The whole brains were quickly harvested and dissected into regions of cerebellum, brain stem, cortex, striatum, thalamus, and hippocampus, the remainder of the brain was also collected to determine the total brain uptake. Organs of blood, heart, lung, muscle, fat, pancreas, spleen, kidney, liver, thymus, and bone were also dissected and collected for counting. All the samples were counted with a dilution of the injectate on an automated well counter (Beckman Gamma 8000 well counter). Tissues were weighed and the uptake was reported as background and decay-corrected percent injected dose per gram (% ID/g).

S1P1 [4] = biological target: S1P1 (Mus musculus (Mouse), UniProt O08530); assay: In vitro autoradiography of [18F]22b in brain slices of LPS-treated mice, SEW2871 blocking; format: binding; conditions: brain sections of LPS-treated mice, ~6 nM tracer, 10 μM SEW2871, 60 min RT
Sequence of S1P1 (Mus musculus (Mouse), UniProt O08530) (O08530 whole entry): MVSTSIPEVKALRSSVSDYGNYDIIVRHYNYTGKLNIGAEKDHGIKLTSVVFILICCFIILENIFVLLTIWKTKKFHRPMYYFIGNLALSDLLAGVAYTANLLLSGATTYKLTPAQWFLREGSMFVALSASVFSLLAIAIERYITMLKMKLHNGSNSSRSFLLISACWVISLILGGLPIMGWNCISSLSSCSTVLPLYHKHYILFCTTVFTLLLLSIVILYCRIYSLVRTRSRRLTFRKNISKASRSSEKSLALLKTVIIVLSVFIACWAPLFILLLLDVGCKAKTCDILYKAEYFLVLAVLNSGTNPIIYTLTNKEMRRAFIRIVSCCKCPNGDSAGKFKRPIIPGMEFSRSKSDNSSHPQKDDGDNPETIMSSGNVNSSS
Method: To confirm the binding specificity of [^18F]22b toward S1P1, in vitro autoradiography studies were performed using mouse brain slices that generated from LPS-induced murine neuroinflammation model, a widely used model for neuroinflammation, and the expression of S1P1 was activated in the mouse brain following the LPS injection according to the report (M. Kono, E. G. Conlon, S. Y. Lux, K. Yanagida, T. Hla, R. L. Proia, Bioluminescence imaging of G protein-coupled receptor activation in living mice, Nat. Commun. 8 (2017) 1163). Adult male C57BL/6 mice (20-25 g, Charles River Inc., Frederick, Md.) were used to generate LPS-induced neuroinflammation murine model. The mice (n=2) received an intraperitoneal injection of LPS from E. coli 055:65 (Sigma-Aldrich, St. Louis, Mo., USA) in saline (3 mg/mL) at dose of 15 mg/kg (5 mL/kg) and then euthanized at 24 h post-injection. Mouse brains were collected and cut into 20 μm sequential sections using a Microm cryotome and mounted on glass slides. […] The distribution of radioactivity was visualized by a Fuji Bio-Imaging Analyzer FLA-7000 (Fuji Photo Film, Tokyo, Japan). Photo-stimulated luminescence (PSL) from the brain slices was quantified using Multi Gauge v3.0 software (Fuji Photo Film Co., Tokyo, Japan). Data were background-corrected, and expressed as photo-stimulated luminescence signals per square millimeter (PSL/mm^2).

[5] = 5 min p.i., literature value; cited from earlier work

Sequence of S1P1 (Rattus norvegicus (Rat), UniProt P48303) (P48303 whole entry): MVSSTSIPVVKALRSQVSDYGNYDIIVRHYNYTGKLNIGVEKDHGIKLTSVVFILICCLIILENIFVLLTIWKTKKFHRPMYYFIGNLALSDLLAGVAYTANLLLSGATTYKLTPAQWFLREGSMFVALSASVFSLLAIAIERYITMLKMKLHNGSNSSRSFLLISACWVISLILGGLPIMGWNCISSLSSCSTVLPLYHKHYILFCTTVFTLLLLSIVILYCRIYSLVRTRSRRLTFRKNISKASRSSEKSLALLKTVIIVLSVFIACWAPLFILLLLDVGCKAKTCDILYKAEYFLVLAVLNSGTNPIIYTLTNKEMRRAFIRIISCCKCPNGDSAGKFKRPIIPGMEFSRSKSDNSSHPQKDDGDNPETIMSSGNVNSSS

OCc1cn(Cc2ccc(-c3noc(-c4ccc(OCC[18F])c(C(F)(F)F)c4)n3)cc2)nn1 [[^18F]22b]
Visualization of rat lumbar spinal cord by microPET (S1P1 [1]; EAE and sham rats): not high enough for clear visualization
Tracer uptake in lumbar spinal cord, EAE (S1P1 [1]; EAE rats, summed % ID/g value, 10-60 min post injection, n=4): 0.47±0.05 % ID/g
Increase of tracer uptake in EAE rat lumbar spinal cord compared with shams (S1P1 [1]; microPET, 10-60 min post injection, listed as 18F-TZ43113): ~37% and 36.7%
Tracer uptake in sham rat spinal cord (TAC) (S1P1 [1]; sham rats, 10-60 min post injection): approximately 0.35 % ID/g
Tracer uptake in lumbar spinal cord, sham (S1P1 [1]; sham rats, summed % ID/g value, 10-60 min post injection, n=4): 0.34±0.05 % ID/g
Blood-brain barrier crossing, rat brain [2]: able to cross the BBB
Tissue uptake, Blood ([3]; 5 min p.i., n = 4): 0.49 % ID/g and 0.49 ± 0.07 % ID/g
Tissue uptake, Blood ([3]; 30 min p.i., n = 4): 0.42 ± 0.05 % ID/g
Tissue uptake, Blood ([3]; 60 min p.i., n = 4): 0.36 ± 0.02 % ID/g
Tissue uptake, Blood ([3]; 120 min p.i., n = 4): 0.35 ± 0.01 % ID/g
Tissue uptake, Bone ([3]; 5 min p.i., n = 4): 0.55 % ID/g and 0.55 ± 0.05 % ID/g
Tissue uptake, Bone ([3]; 30 min p.i., n = 4): 0.45 ± 0.03 % ID/g
Tissue uptake, Bone ([3]; 60 min p.i., n = 4): 0.45 ± 0.01 % ID/g
Tissue uptake, Bone ([3]; 120 min p.i., n = 4): 0.51 ± 0.05 % ID/g
Tissue uptake, Brain ([3]; 5 min p.i., n = 4): 0.49 % ID/g and 0.49 ± 0.04 % ID/g
Tissue uptake, Brain ([3]; 30 min p.i., n = 4): 0.57 % ID/g and 0.57 ± 0.02 % ID/g
Tissue uptake, Brain ([3]; 60 min p.i., n = 4): 0.71 % ID/g and 0.71 ± 0.03 % ID/g
Tissue uptake, Brain ([3]; 60 min p.i., n = 4, listed as 18F-TZ43113): 0.71 % ID/g
Tissue uptake, Brain ([3]; 120 min p.i., n = 4): 0.61 % ID/g and 0.61 ± 0.05 % ID/g
Tissue uptake, Fat ([3]; 5 min p.i., n = 4): 0.51 % ID/g and 0.51 ± 0.22 % ID/g
Tissue uptake, Fat ([3]; 30 min p.i., n = 4): 0.62 ± 0.10 % ID/g
Tissue uptake, Fat ([3]; 60 min p.i., n = 4): 0.69 ± 0.07 % ID/g
Tissue uptake, Fat ([3]; 120 min p.i., n = 4): 0.57 ± 0.07 % ID/g
Tissue uptake, Heart ([3]; 5 min p.i., n = 4): 1.65 % ID/g and 1.65 ± 0.27 % ID/g
Tissue uptake, Heart ([3]; 30 min p.i., n = 4): 1.19 % ID/g and 1.19 ± 0.06 % ID/g
Tissue uptake, Heart ([3]; 60 min p.i., n = 4): 1.05 ± 0.08 % ID/g
Tissue uptake, Heart ([3]; 120 min p.i., n = 4): 0.94 ± 0.06 % ID/g
Tissue uptake, Kidney ([3]; 5 min p.i., n = 4): 3.43 % ID/g and 3.43 ± 0.31 % ID/g
Tissue uptake, Kidney ([3]; 30 min p.i., n = 4): 2.11 % ID/g and 2.11 ± 0.08 % ID/g
Tissue uptake, Kidney ([3]; 60 min p.i., n = 4): 1.91 ± 0.10 % ID/g
Tissue uptake, Kidney ([3]; 120 min p.i., n = 4): 1.62 ± 0.09 % ID/g
Tissue uptake, Liver ([3]; 5 min p.i., n = 4): 5.69 % ID/g and 5.69 ± 0.60 % ID/g
Tissue uptake, Liver ([3]; 30 min p.i., n = 4): 4.30 % ID/g and 4.30 ± 0.37 % ID/g
Tissue uptake, Liver ([3]; 60 min p.i., n = 4): 4.21 ± 0.21 % ID/g
Tissue uptake, Liver ([3]; 120 min p.i., n = 4): 3.66 ± 0.14 % ID/g
Tissue uptake, Lung ([3]; 5 min p.i., n = 4): 2.79 % ID/g and 2.79 ± 0.57 % ID/g
Tissue uptake, Lung ([3]; 30 min p.i., n = 4): 1.96 % ID/g and 1.96 ± 0.07 % ID/g
Tissue uptake, Lung ([3]; 60 min p.i., n = 4): 1.67 ± 0.09 % ID/g
Tissue uptake, Lung ([3]; 120 min p.i., n = 4): 1.54 ± 0.07 % ID/g
Tissue uptake, Muscle ([3]; 5 min p.i., n = 4): 0.39 % ID/g and 0.39 ± 0.04 % ID/g
Tissue uptake, Muscle ([3]; 30 min p.i., n = 4): 0.59 ± 0.05 % ID/g
Tissue uptake, Muscle ([3]; 60 min p.i., n = 4): 0.51 ± 0.02 % ID/g
Tissue uptake, Muscle ([3]; 120 min p.i., n = 4): 0.47 ± 0.02 % ID/g
Tissue uptake, Pancreas ([3]; 5 min p.i., n = 4): 1.96 % ID/g and 1.96 ± 0.56 % ID/g
Tissue uptake, Pancreas ([3]; 30 min p.i., n = 4): 1.89 ± 0.16 % ID/g
Tissue uptake, Pancreas ([3]; 60 min p.i., n = 4): 1.52 ± 0.25 % ID/g
Tissue uptake, Pancreas ([3]; 120 min p.i., n = 4): 1.45 ± 0.15 % ID/g
Tissue uptake, Spleen ([3]; 5 min p.i., n = 4): 2.22 % ID/g and 2.22 ± 0.23 % ID/g
Tissue uptake, Spleen ([3]; 30 min p.i., n = 4): 1.36 % ID/g and 1.36 ± 0.04 % ID/g
Tissue uptake, Spleen ([3]; 60 min p.i., n = 4): 1.27 ± 0.08 % ID/g
Tissue uptake, Spleen ([3]; 120 min p.i., n = 4): 1.14 ± 0.10 % ID/g
Tissue uptake, Thymus ([3]; 5 min p.i., n = 4): 0.69 % ID/g and 0.69 ± 0.08 % ID/g
Tissue uptake, Thymus ([3]; 30 min p.i., n = 4): 0.83 ± 0.07 % ID/g
Tissue uptake, Thymus ([3]; 60 min p.i., n = 4): 0.82 ± 0.04 % ID/g
Tissue uptake, Thymus ([3]; 120 min p.i., n = 4): 0.78 ± 0.05 % ID/g
Defluorination in vivo (bone uptake 5 to 120 min) ([3]; bone radioactivity unchanged): no defluorination in vivo
Regional brain uptake, brain stem ([3]; brain stem, 5 min p.i.): 0.50 ID %/g
Regional brain uptake, cerebellum ([3]; cerebellum, 5 min p.i.): 0.53 ID %/g
Regional brain uptake, cortex ([3]; cortex, 5 min p.i.): 0.59 ID %/g
Regional brain uptake, hippocampus ([3]; hippocampus, 5 min p.i.): 0.43 ID %/g
Time of maximum brain uptake ([3]; post injection): 60 min
Regional brain uptake, striatum ([3]; striatum, 5 min p.i.): 0.47 ID %/g
Regional brain uptake, thalamus ([3]; thalamus, 5 min p.i.): 0.46 ID %/g
Reduction of tracer uptake by SEW2871 blocking (S1P1 [4]): ~36%

O=C(O)C1CN(Cc2ccc(-c3noc(-c4ccc(OCC[18F])c(C(F)(F)F)c4)n3)cc2)C1 [[^18F]4]
Brain uptake of previous radiotracer [5]: 0.49 % ID/g
